Data on six compounds can be found in ChEMBL document CHEMBL1122294, “Synthesis and biological activity of zoapatanol analogues” (J Med Chem, 1983).

What all share (assay type): functional, organism-based
In assay [1] the test system is Cavia porcellus. The assay can be described thus: Postcoital antifertility was determined in guinea pigs administered intraperitoneally as a single dose on day 22 postmating days; IA- Inactive.
Assay [2] relates to Cavia porcellus. The assay can be described thus: Postcoital antifertility activity was determined in guinea pigs after injected for 3 days subcutaneously (12-14 postmating days); IA- Inactive.
For assay [3], the system named is Cavia porcellus. As to the kind of experiment: Luteolytic activity was determined in guinea pigs administered intraperitoneally as a single dose on day 22 postmating days; IA- Inactive.
Assay [4] has as its system Cavia porcellus. The assay can be described thus: Pregnancy was determined in guinea pigs after sc administration of 50 or 75 mg per guinea pig on 22-24 postmating days (n=5); NA- No apparent effect.
Assay [5] deals with Cavia porcellus. As to the kind of experiment: Postcoital antifertility was determined in guinea pigs after injected for 3 days subcutaneously (22-24 postmating days); IA- Inactive.
For assay [6], the system named is Cavia porcellus. The assay can be described thus: Luteolytic activity was determined in guinea pigs after injected for 3 days subcutaneously (12-14 postmating days); IA- Inactive.
For assay [7], the system named is Cavia porcellus. As to the kind of experiment: Luteolytic activity was determined in guinea pigs after injected for 3 days subcutaneously (22-24 postmating days); IA- Inactive.
The test system of assay [8] is Cavia porcellus. As to the kind of experiment: Pregnancy was determined in guinea pigs after sc administration of 40 or 50 mg per guinea pig on 12-14 postmating days (n=5); NA- No apparent effect.
Assay [9] is filed under the species Cavia porcellus. The assay can be described thus: Pregnancy was determined in guinea pigs after a single dose of 24 mg per guinea pig (n=1 or 2); NE- No effect.
The species entered for assay [10] is Cavia porcellus. The assay can be described thus: Pregnancy was determined in guinea pigs after a single dose of 40 mg per guinea pig (n=1 or 2); NE- No effect.
For assay [11], the system named is Cavia porcellus. As to the kind of experiment: Effect in guinea pigs at a dose of 80 mg/kg of body weight; A- Partially active. Also on record: dose 80 mg/kg.
Assay [12] deals with Cavia porcellus. The assay can be described thus: Effect on the resorption of implantation sites in guinea pigs at 100 mg/kg administered intraperitoneally; E- Fully effective. Also on record: dose 100 mg/kg.
Assay [13] deals with Cavia porcellus. As to the kind of experiment: Effect in guinea pigs at a dose of 60 mg/kg of body weight; A- Partially active. Also on record: dose 60 mg/kg.

The source made the active and inactive calls. The calls are words filed in the database; no cut-off is given here.

As for `COC(=O)C(C)CCC[C@]1(C)COC(CO)CO1` (some centres undefined), the result in the assay with Cavia porcellus [1], with Cavia porcellus [2], in the assay with Cavia porcellus [3], in the assay on Cavia porcellus [4], with Cavia porcellus [5] and with Cavia porcellus [6] was inactive. The result in the assay with Cavia porcellus [7] and in the assay with Cavia porcellus [8] was inactive.

With `CC(C)=CCC(=O)C(C)CCCC1(C)COC(CO)CO1` (centres undefined), the outcome in the assay on Cavia porcellus [1], with Cavia porcellus [2], in the assay with Cavia porcellus [3], with Cavia porcellus [5], in the assay on Cavia porcellus [6] and in the assay with Cavia porcellus [7] was inactive.

On to `CC(C)/C=C/C(=O)C(C)CCCC1(C)COC(CC(=O)O)CO1` (centres undefined), for which the result with Cavia porcellus [1], in the assay with Cavia porcellus [2], in the assay with Cavia porcellus [3], in the assay listed under Cavia porcellus [9], in the assay on Cavia porcellus [5] and in the assay on Cavia porcellus [6] was inactive. In addition, the outcome in the assay on Cavia porcellus [7] and in the assay listed under Cavia porcellus [10] was inactive.

In the case of `CC(C)=CCC(=O)C(C)CCCC1(C)COC(CC(=O)O)CO1` (centres undefined), the outcome in the assay on Cavia porcellus [1], with Cavia porcellus [2], in the assay with Cavia porcellus [3], in the assay with Cavia porcellus [5], in the assay with Cavia porcellus [6] and in the assay on Cavia porcellus [7] was inactive.

For the compound `CC(C)=CCC(=O)C(C)CCCC1(C)OC/C(=C/CO)CCC1O` (centres undefined), the figures for the Activity entry with Cavia porcellus [11], in the assay on Cavia porcellus [12] and in the assay on Cavia porcellus [13] were “Weak activity”, “Fully effective” and “Weak activity”, respectively.

As for `COC(=O)C(C)CCC[C@@]1(C)COC(CO)CO1` (some centres undefined), the result in the assay on Cavia porcellus [1], with Cavia porcellus [2], with Cavia porcellus [3], in the assay on Cavia porcellus [4], in the assay with Cavia porcellus [5] and in the assay on Cavia porcellus [6] was inactive. The result in the assay with Cavia porcellus [7] and in the assay with Cavia porcellus [8] was inactive.
